Experimental data: US20250304537A1 (Repare Therapeutics Inc., priority 2022, published 2025)

Target: recombinant human Myt1 (full length PKMYT1) (Homo sapiens (Human), UniProt Q99640)
Test: Recombinant human Myt1 kinase assay (ADP-Glo)
Assay type: biochemical
Conditions: 10 μM ATP
Method: Detection of Myt1 kinase activity utilized a recombinant human Myt1 kinase assay measuring the hydrolysis of ATP using a commercially available ADP-Glo Assay (ADP-Glo™ Kinase Assay from Promega, 10 000 assays, #V9102). Briefly, 5 μL recombinant human Myt1 (full length PKMYT1 recombinant human protein expressed in insect cells from Thermo Fisher #A33387; ˜80% purity) was prepared in reaction buffer (70 mM HEPES, 3 mM MgCl2, 3 mM MnCl2, 50 μg/ml PEG 20000, 3 μM Na-orthovanadate, 1.2 mM DTT) and added to 384 well white polystyrene, flat bottom well, non-treated, microplate (Corning #3572). After this, 5 μL of compounds (diluted in reaction buffer to 0.5% DMSO) was added to the microplate and the plate was spun briefly and incubated at 22° C. for 15 minutes. Ultra-Pure Adenosine Triphosphate (ATP) solution (ADP-Glo kit from Promega) was diluted in reaction buffer and 5 μL was added to the microplate, spun down briefly and incubated for 60 minutes at 30° C. The final Myt1 enzyme concentration was 18 nM and the final ATP concentration was 10 μM. After the 60-minute incubation, 15 μL of ADP-Glo reagent was added and the plate was spun briefly and sealed and incubated in the dark for 40 minutes at 22° C. Following this, 30 μL of kinase detection reagent was added per well and the plate was spun briefly, sealed and incubated for 45-60 minutes at 22° C. in the dark. Luminescence was read using the Envision (250 ms integration). The IC50 and the % max inhibition were calculated for each inhibitor compound tested.

recombinant human Myt1 (full length PKMYT1), sequence (Q99640 whole entry): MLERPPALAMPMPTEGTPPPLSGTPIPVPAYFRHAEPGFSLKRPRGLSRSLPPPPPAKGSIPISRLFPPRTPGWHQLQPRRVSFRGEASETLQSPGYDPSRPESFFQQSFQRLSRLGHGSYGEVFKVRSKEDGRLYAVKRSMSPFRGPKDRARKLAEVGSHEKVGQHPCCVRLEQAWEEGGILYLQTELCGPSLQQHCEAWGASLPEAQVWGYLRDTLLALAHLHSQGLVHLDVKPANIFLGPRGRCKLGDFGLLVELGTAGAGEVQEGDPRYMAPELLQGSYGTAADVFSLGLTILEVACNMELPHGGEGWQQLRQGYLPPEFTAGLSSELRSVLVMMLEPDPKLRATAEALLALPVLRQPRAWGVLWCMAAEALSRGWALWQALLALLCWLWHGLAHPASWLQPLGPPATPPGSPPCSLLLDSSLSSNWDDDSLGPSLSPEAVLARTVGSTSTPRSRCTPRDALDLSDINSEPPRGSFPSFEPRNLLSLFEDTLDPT

SMILES | IC50
CO[C@@H](COc1nccc(-c2cc(-c3c(C)ccc4[nH]ncc34)c(N)c(C(N)=O)n2)n1)c1ccccc1 (atropisomer, axis not shown) [Compound 308] | 1740 nM
Cc1ccc2[nH]ncc2c1-c1cc(-c2ccccn2)nc(C(N)=O)c1N [Compound 96] | 387 nM
Cc1ccc(O)cc1-c1nc(-c2cccnc2)nc(C(N)=O)c1N [Compound 21] | 202 nM
Cc1ccc(O)cc1-c1nc(C2CCC(F)(F)CC2)nc(C(N)=O)c1N [Compound 41, 5-amino-2-(4,4-difluorocyclohexyl)-6-(5-hydroxy-2-methylphenyl)pyrimidine-4-carboxamide] | 827 nM
Cc1ccc2[nH]ncc2c1-c1cc(-c2cnc(C(C)(C)O)s2)nc(C(N)=O)c1N [Compound 218] | 230 nM
Cc1ccc(O)cc1-c1nc(C(N)=O)c(N)c(-c2cc(O)ccc2C)n1 [Compound 12] | 246 nM
Cc1ccccc1-c1nc(C(N)=O)c(N)c(-c2cc(O)ccc2C)n1 [Compound 31] | 341 nM
Cc1ccc2[nH]ncc2c1-c1nc(-c2ccccc2)nc(C(N)=O)c1Cl [Compound 75, 5-chloro-6-(5-methyl-1H-indazol-4-yl)-2-phenylpyrimidine-4-carboxamide] | > 2000 nM
Cc1ccc2[nH]ncc2c1-c1nc(-c2cccc(CNc3ncc(C(F)(F)F)cn3)c2)nc(C(N)=O)c1N [Compound 296] | 213 nM
Cc1ccc2[nH]ncc2c1-c1cc(-c2ccc(OC3COC3)nc2)nc(C(N)=O)c1N [Compound 201] | 91 nM
Cc1ccc2[nH]ncc2c1-c1cc(-c2cccc(OC[C@H]3CCCN3)n2)nc(C(N)=O)c1N (atropisomer, axis not shown) [Compound 387] | 640 nM
Cc1ccc2[nH]ncc2c1-c1cc(C(N)=O)nc(-c2ccccc2)n1 [Compound 76, 6-(5-methyl-1H-indazol-4-yl)-2-phenylpyrimidine-4-carboxamide] | > 2000 nM
Cc1ccc2[nH]ncc2c1-c1nc(-c2ccc(N3CCOCC3)c(C(F)(F)F)c2)nc(C(N)=O)c1N [Compound 157] | 904 nM
Cc1ccc2[nH]ncc2c1-c1cc(-c2ccn(C)n2)nc(C(N)=O)c1N [Compound 171] | 96 nM
Cc1ccc(-c2nc(C(N)=O)c(N)c(-c3cc(O)ccc3C)n2)cc1 [Compound 20] | 105 nM
Cc1ccc2[nH]ncc2c1-c1cc(-c2ccnc(OCCOc3ccccc3)n2)nc(C(N)=O)c1N [Compound 195] | 182 nM
Cc1ccc2[nH]ncc2c1-c1cc(-c2ccnc(OC3CCOCC3)n2)nc(C(N)=O)c1N (atropisomer, axis not shown) [Compound 231] | 231 nM
Cc1ccc2[nH]ncc2c1-c1cc(-c2cccc(OCCN3CCCC3)n2)nc(C(N)=O)c1N (atropisomer, axis not shown) [Compound 271] | 1090 nM
Cc1ccc2[nH]ncc2c1-c1cc(-c2cccc(OCc3ncccn3)n2)nc(C(N)=O)c1N (atropisomer, axis not shown) [Compound 234] | 1880 nM
Cc1ccc2[nH]ncc2c1-c1cc(-c2cccc(OC[C@H]3CCCO3)n2)nc(C(N)=O)c1N (atropisomer, axis not shown) [Compound 388] | 643 nM
Cc1ccc2n[nH]cc2c1-c1cc(-c2cccc(=O)[nH]2)nc(C(N)=O)c1N [Compound 243] | 73 nM
Cc1ccc2[nH]ncc2c1-c1nc(-c2cccc(C(F)(F)F)c2)nc(C(N)=O)c1N [Compound 112] | 100 nM
Cc1csc(-c2nc(C(N)=O)c(N)c(-c3c(C)ccc4[nH]ncc34)n2)c1 [Compound 148] | 69 nM
Cc1ccc2[nH]ncc2c1-c1cc(-c2ccnc(OCc3cc4ccccc4o3)n2)nc(C(N)=O)c1N [Compound 196] | 754 nM
Cc1ccc2[nH]ncc2c1-c1cc(-c2cccc(OCc3ccn(C)n3)n2)nc(C(N)=O)c1N [Compound 248] | 71 nM
Cc1ccc2[nH]ncc2c1-c1nc(-c2ccc(C(F)(F)F)cc2)nc(C(N)=O)c1N [Compound 104] | 317 nM
Cc1ccc(O)cc1-c1c(Cl)c(C(N)=O)nc2ccccc12 [Compound 73, 3-chloro-4-(5-hydroxy-2-methylphenyl)quinoline-2-carboxamide] | > 50 nM

Results, then the compound that gave them:

IC50 | SMILES
4 nM | Cc1ccc2[nH]ncc2c1-c1nc(-c2ccccc2NC(=O)C(C)C)nc(C(N)=O)c1N [Compound 407]
8 nM | CO[C@H](COc1cccc(-c2cc(-c3c(C)ccc4[nH]ncc34)c(N)c(C(N)=O)n2)n1)C1CC1 (atropisomer, axis not shown) [Compound 364]
30 nM | Cc1ccc2[nH]ncc2c1-c1nc(-c2ccnc(N3CCN(C)CC3)c2)nc(C(N)=O)c1N [Compound 154]
21 nM | Cc1ccc2[nH]ncc2c1-c1nc(-c2ccc(C#N)s2)nc(C(N)=O)c1N [Compound 158]
21 nM | Cc1nnc(COc2cccc(-c3cc(-c4c(C)ccc5[nH]ncc45)c(N)c(C(N)=O)n3)n2)o1 [Compound 318]
44 nM | CNc1ccc(-c2nc(C(N)=O)c(N)c(-c3c(C)ccc4[nH]ncc34)n2)cc1 [Compound 152]
56 nM | Cc1ccc2[nH]ncc2c1-c1cc(-c2ncccn2)nc(C(N)=O)c1N [Compound 219]
25 nM | Cc1ccc2[nH]ncc2c1-c1nc(-c2ccc3cnn(C)c3c2)nc(C(N)=O)c1N [Compound 119]
18 nM | COCc1cccc(-c2nc(C(N)=O)c(N)c(-c3c(C)ccc4[nH]ncc34)n2)c1 [Compound 292]
15 nM | Cc1ccc2[nH]ncc2c1-c1cc(-c2ccnc(N3CC[C@H](O)C3)n2)nc(C(N)=O)c1N [Compound 348]
25 nM | Cc1ccc2[nH]ncc2c1-c1cc(-c2ccnc(OCCOCCN(C)C)n2)nc(C(N)=O)c1N [Compound 192]
30 nM | Cc1ccc2[nH]ncc2c1-c1nc(-c2cccc(CN3CCOCC3)c2)nc(C(N)=O)c1N [Compound 283]
19 nM | Cc1ccc2[nH]ncc2c1-c1cc(-c2ccnc(OCCc3ccncc3)n2)nc(C(N)=O)c1N [Compound 263]
9 nM | Cc1ccc2[nH]ncc2c1-c1cc(-c2ccnc(N3CCCC(O)C3)n2)nc(C(N)=O)c1N (stereo not shown) [Compound 367]
17 nM | Cc1ccc2[nH]ncc2c1-c1nc(-c2ccc(CN3CCOCC3)s2)nc(C(N)=O)c1N [Compound 156]
35 nM | CCC(C)COc1cccc(-c2cc(-c3c(C)ccc4[nH]ncc34)c(N)c(C(N)=O)n2)n1 (stereo not shown) [Compound 361]
17 nM | Cc1ccc2[nH]ncc2c1-c1nc(-c2cccc(OCC(=O)O)c2)nc(C(N)=O)c1N [Compound 294]
45 nM | Cc1ccc(O)cc1-c1nc(-c2ccc(F)c(Cl)c2)nc(C(N)=O)c1N [Compound 28]
48 nM | Cc1ccc2[nH]ncc2c1-c1cc(-c2cc[nH]c(=O)c2)nc(C(N)=O)c1N [Compound 237]

IC50 | SMILES
23 nM | Cc1ccc2[nH]ncc2c1-c1nc(-c2ccc3cn[nH]c3c2)nc(C(N)=O)c1N [Compound 129]
29 nM | Cc1ccc2[nH]ncc2c1-c1nc(-c2cccc3c2NCC3)nc(C(N)=O)c1N [Compound 386]
15 nM | Cc1ccc2[nH]ncc2c1-c1nc(-c2ccnc(N3CCOCC3)c2)nc(C(N)=O)c1N [Compound 155]
18 nM | Cc1ccc2[nH]ncc2c1-c1nc(-c2cccc3nc[nH]c23)nc(C(N)=O)c1N [Compound 378]
18 nM | Cc1ccc(O)cc1-c1nc(-c2ccncc2)nc(C(N)=O)c1N [Compound 24]
2 nM | Cc1ccc2[nH]ncc2c1-c1cc(-c2ccnc(N[C@@H](CO)c3ccccc3)n2)nc(C(N)=O)c1N (atropisomer, axis not shown) [Compound 362]
57 nM | Cc1ccc2[nH]ncc2c1-c1nc(-c2ccc(N(C)C)cc2)nc(C(N)=O)c1N [Compound 145]
68 nM | Cc1ccc2[nH]ncc2c1-c1cc(-c2ccc(=O)[nH]c2)nc(C(N)=O)c1N [Compound 178]
57 nM | Cc1ccc2[nH]ncc2c1-c1nc(-c2cccc(N(C)C)c2)nc(C(N)=O)c1N [Compound 139]
16 nM | CCOC(=O)COc1cccc(-c2nc(C(N)=O)c(N)c(-c3c(C)ccc4[nH]ncc34)n2)c1 [Compound 293]
4 nM | Cc1ccc2[nH]ncc2c1-c1cc(-c2ccnc(N3CCC(O)CC3)n2)nc(C(N)=O)c1N [Compound 359]
14 nM | Cc1ccc2[nH]ncc2c1-c1cc(-c2cccc(OC[C@H]3CCCN3)n2)nc(C(N)=O)c1N [Compound 374]
28 nM | Cc1ccc2[nH]ncc2c1-c1nc(-c2cccc3cc[nH]c23)nc(C(N)=O)c1N [Compound 366]
46 nM | Cc1ccc2[nH]ncc2c1-c1cc(-c2ccccn2)cc(C(N)=O)c1N [Compound 137, 2-amino-3-(5-methyl-1H-indazol-4-yl)-5-(pyridin-2-yl)benzamide]
19 nM | Cc1ccc2[nH]ncc2c1-c1cc(-c2ccnc(OC[C@H]3CCC(=O)N3)n2)nc(C(N)=O)c1N [Compound 337]
61 nM | Cc1ccc2[nH]ncc2c1-c1cc(-c2csc(C3(O)COC3)n2)nc(C(N)=O)c1N [Compound 223]
14 nM | Cc1ccc2[nH]ncc2c1-c1cc(-c2ccnc(OCCc3cnccn3)n2)nc(C(N)=O)c1N [Compound 310]
28 nM | NC(=O)c1nc(-c2ccnnc2)cc(-c2c(Cl)ccc3[nH]ncc23)c1N [Compound 106]
